Where two headings read alike, the source gives them in different places.
What was measured:
γ-H2AX in C4-2B cells = conditions: C4-2B (printed C4-28), 18 hours
[1] = test system: poly(ADP)ribose (PAR) formation in VCaP cells; conditions: 0.01-100 μM, two hours
Protocol: (§1) PAR inhibition using niraparib was assessed in 2 human prostate cancer cell lines, C4-2B and VCaP. The C4-2B cell line was grown in RPMI1640±GlutaMAX™-I medium supplemented with 10% FBS and NEAA and split every 3-4 days. VCaP cells were grown in DMEM+GlutaMAX™-I medium with FBS and NEAA and subcultured every 7 days.
(§2) Cells were harvested by brief trypsinization and each line was seeded into 6-well plates in 1 mL of medium at an appropriate density. An extra 500 μL of complete medium was added, for a total volume per well of 1.5 mL. Cells were rested overnight in the plates at 37° C. in a humidified 5% CO2 incubator. The next day, medium was removed from plates and cells were washed using 1 mL serum free medium (RPMI or DMEM respectively). Treatment was initiated by addition of 1 mL of niraparib (final concentrations 100, 10, 1, 0.1, 0.01 and 0 μM in 0.1% DMSO) in the appropriate medium to triplicate wells. Plates were returned to the incubator for two hours.
(§3) Following treatment, extracts were prepared using reagents and procedures provided in the HT PARP in vivo Pharmacodynamic Assay II (Trevigen #4520-096-K). Medium was removed from each well and placed into separate labeled microfuge tubes, and the plates were placed on ice. The tubes were spun at 1500 rpm for 4 minutes to pellet any cells that detached from the plate during drug incubation.
(§4) Samples were assayed in duplicate.

[2] = test system: poly(ADP)ribose (PAR) formation in C4-2B cells; conditions: 0.01-100 μM, two hours
Protocol: as §1, §2, §3, §4

[3] = test system: C4-2B human prostate tumors
C4-2B cells = test: cells; conditions: 7-day niraparib treatment
Protocol: (§5) In vitro cytotoxicity of niraparib was assessed in 5 human prostate cancer cell lines: C4-2B, LNCaP, LNCaP AR.TB, VCaP, and 22Rv1. C4-2B, LNCaP, LNCaP AR.TB, and 22Rv1 cell lines were grown in RPMI1640±GlutaMAX™-I medium (Life Technologies #61870-036) supplemented with 10% heat-inactivated fetal bovine serum (FBS) (Life Technologies 416140-071) and non-essential amino acids (NEAA) (Life Technologies #11140-050); and VCaP cells were grown in DMEM+GlutaMAX™-I medium (Life Technologies ##10569-010) with 10% FBS and NEAA. VCaP cells were subcultured every 7 days; other lines were split every 3-4 days. Cell growth kinetics of each cell line were determined by seeding cells at several densities and monitoring growth at intervals up to 7 days. Growth was determined using the Promega Cell TiterGlo reagent (#G7571) to measure cellular ATP by means of a chemiluminescent luciferin-luciferase reaction. […] For niraparib cytotoxicity experiments, cells were harvested by brief trypsinization and each line was seeded to the inner 60 wells of 96-well plates in 100 μL of medium at an appropriate density for a 7-day treatment. The outer wells of each plate were filled with Dulbecco's phosphate buffered saline (DPBS; Life Technologies #14190-144) to reduce evaporation from test wells. Cells were rested overnight in the plates at 37° C. in a humidified 5% CO2 incubator. […] The final vehicle concentration was 0.5% DMSO. Cells were cultured for 7 days. Relative cell viability after treatment was determined using Cell TiterGlo reagent, as above. All luminescent output values were normalized to percent inhibition based on mean luminescence of the untreated control wells, and the mean percent inhibition of the vehicle control wells was subtracted from each treatment value. Percent inhibition was plotted vs log μM concentration in GraphPad Prism 7.00. Nonlinear regression and calculation of EC50 values were performed using the log(agonist) vs. response—Variable slope (four parameters) fit.

LNCaP AR.TB cells = test: cells; conditions: Homo sapiens, 168 h
Protocol: as §5

LNCaP cells = test: cells; conditions: Homo sapiens, 168 h
Protocol: as §5

22Rv1 cells = test: cells; conditions: Homo sapiens, 22Rv1, 168 h
Protocol: as §5

VCaP cells = test: cells; conditions: 7-day niraparib treatment
Protocol: as §5

[4] = test system: γ-H2AX in LNCaP AR.TB cells; conditions: 18 hours
γ-H2AX in 22RV1 cells = conditions: 22RV1 (printed 22AV1), 18 hours

EC50 (C4-2B cells): 1.22 µM
EC50 (C4-2B cells; Homo sapiens, 168 h): ~1.2 µM
EC50 (LNCaP AR.TB cells): 2.14 µM
EC50 (LNCaP cells): 3.5 µM
EC50 (22Rv1 cells): 3.52 µM
EC50 (VCaP cells): 4.1 µM
EC50 (VCaP cells; Homo sapiens, 168 h): 4.1 µM
Compound: NC(=O)c1cccc2cn(-c3ccc([C@@H]4CCCNC4)cc3)nc12 [niraparib, 2-[4-[(3S)-piperidin-3-yl]phenyl]indazole-7-carboxamide]
1st Significant Concentration (minimum concentration that induces significant change in γ-H2AX) (γ-H2AX in C4-2B cells): 1.57 µM
PAR (pg PAR/mg of protein) [1]: reduced in a dose-dependent fashion
PAR (pg PAR/mg of protein) [2]: reduced in a dose-dependent fashion
tumor growth inhibition (TGI) ([3]; 25 mg/kg QD p.o., days 22 and 24, not significant): ~12%
tumor growth inhibition (TGI) ([3]; 50 mg/kg QD p.o., days 18, 22 and 24, significant): ~40%
1st Significant Concentration (minimum concentration that induces significant change in γ-H2AX) [4]: 3.13 µM
1st Significant Concentration (minimum concentration that induces significant change in γ-H2AX) (γ-H2AX in 22RV1 cells): 1.57 µM
